Calls of active or inactive are those of the source.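 The calls were made as follows: active = fitted curve reaches 40% activation below the top valid tested dose, in every test run; inconclusive = test runs disagree on the call; inactive = the rest, including effects opposite to the expected direction.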

One assay in a line: endothelial E-selectin upregulation by compounds – imaging, HUVEC, cherry-picked samples, dose response (AID 977605).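 Also: signal is the share of imaged cells scored positive for E-selectin.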 The settings on record: HUVEC E-selectin immunostaining, at 19.5 µM (top of the series).
Take `Cc1ccc(OC(F)F)c(N2C(=O)C3C4CCC(O4)C3C2=O)c1` (stereo not given): the activation is -0.065% (inactive).

The same assay, now with this note: HUVEC E-selectin immunostaining, at 19.5 µM (top of the series), percent of TNF-alpha response over vehicle.
On to `C[C@@H]1CN([C@@H](C)CO)C(=O)Cc2cc(NC(=O)c3ccncc3)ccc2O[C@@H]1CN(C)C(=O)Nc1ccc(C(F)(F)F)cc1`, for which the activation is -0.044% (inactive). Consider `Cc1noc(C)c1NC(=O)N(C)C[C@@H]1Oc2ccc(NC(=O)c3ccncc3)cc2C(=O)N([C@H](C)CO)C[C@H]1C`, for which the activation is -0.047% (inactive). On the same count and under the same terms, with `C[C@@H]1CN([C@H](C)CO)C(=O)Cc2cc(NS(=O)(=O)c3ccc(F)cc3)ccc2O[C@@H]1CN(C)S(=O)(=O)c1ccc(Cl)cc1` the figure was 1.34% (inactive); with `COc1ccc(NC(=O)N(C)C[C@H]2Oc3ccc(N(C)C)cc3CC(=O)N([C@H](C)CO)C[C@@H]2C)cc1`, -0.19% (inactive).

Consider `Cc1noc(C)c1NC(=O)N(C)C[C@H]1Oc2ccc(NS(=O)(=O)c3cccs3)cc2C(=O)N([C@H](C)CO)C[C@@H]1C`, for which the activation is 3.28% (inactive).

Take `COc1ccc(S(=O)(=O)N(C)C[C@H]2Oc3ccc(NC(=O)c4ccncc4)cc3C(=O)N([C@H](C)CO)C[C@@H]2C)cc1`: the activation was -0.104% (inactive).

With `Cc1noc(C)c1NC(=O)N(C)C[C@@H]1Oc2ccc(NS(=O)(=O)c3cccs3)cc2CC(=O)N([C@H](C)CO)C[C@H]1C`, the activation was -0.165% (inactive). On the same count and under the same terms, with `COc1cc(OC)cc(N(C(=O)c2snc(C(N)=O)c2N)C(C(=O)NCC2CCCO2)c2ccc(C)o2)c1` (stereo not given) the figure was -0.112% (inactive). Regarding `C[C@H](CO)N1C[C@H](C)[C@@H](CN(C)Cc2ccc(C(F)(F)F)cc2)Oc2ccc(NC(=O)CCC(F)(F)F)cc2C1=O`, the activation was 0.441% (inactive).

On to `C[C@@H]1CN([C@@H](C)CO)C(=O)Cc2cc(NC(=O)Nc3ccc(F)cc3)ccc2O[C@H]1CN(C)S(=O)(=O)c1ccccc1`, for which the activation is -0.074% (inactive). Regarding `COc1ccc(S(=O)(=O)N(C)C[C@H]2Oc3ccc(NC(=O)c4ccncc4)cc3C(=O)N([C@@H](C)CO)C[C@@H]2C)cc1`, the activation is -0.047% (inactive). Still for that read-out and setting: for `CC(=O)c1ccc(N(C(=O)CNC(=O)c2ccco2)C(C(=O)NC2CCCC2)c2ccc(C)o2)cc1` (stereo not given) the value was -0.024% (inactive); for `Cc1ccccc1N(CC(=O)NC1CCCCC1)C(=O)CNC(=O)c1cccs1`, 0.744% (inactive).

Take `Cc1cccc(NC(=O)CCCN2C(=O)C(c3ccccc3)Oc3cccnc32)c1C` (stereo not given): the activation was 0.811% (inactive). On the same count and under the same terms, for `C[C@H]1CN([C@@H](C)CO)C(=O)c2cc(NC(=O)CCCCCC(=O)Nc3ccccc3N)ccc2O[C@H]1CN(C)C(=O)Nc1ccc(F)cc1` the value was 0.137% (inactive); for `Cc1ccc(O)c([C@H](CCN(C(C)C)C(C)C)c2ccccc2)c1`, -0.269% (inactive). Same read-out and setting: with `CC(Sc1ncnc2sc(-c3ccccc3)cc12)C(=O)N1CCNC1=O` (stereo not given) the figure was 0.007% (inactive); with `COc1ccc(CNC(=O)Cn2ccc(N)nc2=O)cc1`, 0.076% (inactive); with `C[C@@H]1CN([C@H](C)CO)C(=O)c2cccc(NC(=O)Nc3ccccc3)c2O[C@@H]1CN(C)S(=O)(=O)c1ccccc1`, 0.268% (inactive). Regarding `CC(C)NC(=O)Nc1ccc2c(c1)C(=O)N(C)[C@@H]1CC[C@@H](CC(=O)NCC(F)(F)F)O[C@@H]1CO2`, the activation is 0.147% (inactive). As to `O=S(=O)(Nc1cccc(S(=O)(=O)N2CCCC2)c1)c1cccs1`, the activation was 2.79% (inactive).

With `CCCNC(=O)N(C)C[C@@H]1Oc2ncc(C3=CCCC3)cc2C(=O)N([C@H](C)CO)C[C@H]1C`, the activation is 0.267% (inactive). In the case of `O=C(NCc1ccccc1)C(c1ccc(C(F)(F)F)cc1)N1CCN(CCN2CCOCC2)CC1` (stereo not given), the activation is 6.03% (inactive).

As for `COc1ccc(S(=O)(=O)N2CCOCC2)cc1C(=O)NCc1ccccc1CN1CCCC1`, the activation is 0.269% (inactive).

For the compound `COc1ccc(CN(C)C[C@@H]2Oc3ccc(NC(=O)Nc4ccc(F)cc4)cc3CC(=O)N([C@H](C)CO)C[C@@H]2C)cc1`, the activation was -0.068% (inactive). On the same count and under the same terms, for `C[C@H]1CN([C@@H](C)CO)C(=O)c2cccc(NC(=O)C3CC3)c2O[C@H]1CN(C)Cc1ccccc1` the value was 1.36% (inactive). Still for that read-out and setting: with `O=C(NC1CCCC1)c1cc(-c2ccccc2O)on1` the figure was 0.323% (inactive). Still for that read-out and setting: with `C[C@@H]1CN([C@@H](C)CO)S(=O)(=O)c2ccc(C#Cc3ccccc3)cc2O[C@@H]1CN(C)CC1CC1` the figure was 0.541% (inactive); with `C[C@H](CO)N1C[C@H](C)[C@H](CN(C)Cc2ccc(C(F)(F)F)cc2)Oc2ccc(N(C)C)cc2CC1=O`, 0.692% (inactive). Take `C[C@H](CO)N1C[C@H](C)[C@@H](CN(C)S(C)(=O)=O)Oc2ccc(NS(=O)(=O)c3cccs3)cc2C1=O`: the activation was -0.072% (inactive).

In the case of `COc1ccccc1-c1c(C)nn2c(NCCN3CCCC3)cc(C)nc12`, the activation is 0.061% (inactive).

For the compound `C[C@@H]1CN([C@@H](C)CO)C(=O)c2cccc(NC(=O)C3CC3)c2O[C@H]1CN(C)Cc1ccccc1`, the activation was 0.172% (inactive).

As to `C[C@@H]1CN([C@@H](C)CO)C(=O)c2cc(NC(=O)Nc3ccccc3)ccc2O[C@@H]1CN(C)C(=O)Nc1ccc(C(F)(F)F)cc1`, the activation was 0.807% (inactive).

`Cc1ccc(NC(=O)CN2CCOCC2)cc1Cl`: the activation is 0.043% (inactive).

On to `C[C@@H]1CN([C@H](C)CO)C(=O)c2cc(C3=CCCC3)cnc2O[C@H]1CN(C)C(=O)Nc1ccccc1`, for which the activation was -0.157% (inactive). On the same count and under the same terms, with `COc1ccc(S(=O)(=O)NCC(=O)NCc2cc(=O)n(C)c(=O)n2C)cc1F` the figure was 0.047% (inactive). The same measure, in the same setting: for `CCOC(=O)c1ccc(N(C(=O)c2ccco2)C(C(=O)NC2CCCCC2)c2ccncc2)cc1` (stereo not given) the value was -0.129% (inactive). With `C[C@@H]1CN([C@H](C)CO)C(=O)Cc2cc(NC(=O)C3CC3)ccc2O[C@@H]1CN(C)Cc1ccc2c(c1)OCO2`, the activation was -0.006% (inactive). On the same count and under the same terms, for `COc1ccc(OC)c(NC(=O)c2ccc(CSc3ncccn3)cc2)c1` the value was 0.128% (inactive); for `Cn1c(CNS(=O)(=O)c2ccc(Cl)cc2)cc(=O)n(C)c1=O`, -0.279% (inactive). Still for that read-out and setting: with `CNC(=O)Oc1ccc2c(c1)[C@]1(C)CCN(C)C1N2C` (stereo not given in full) the figure was -0.106% (inactive). `C[C@@H]1CN([C@H](C)CO)C(=O)c2cc(NC(=O)CCN3CCOCC3)ccc2O[C@@H]1CN(C)Cc1ccncc1`: the activation was -0.14% (inactive).

In the case of `C[C@@H]1CN([C@@H](C)CO)C(=O)c2cccc(NC(=O)Nc3ccc(F)cc3)c2O[C@H]1CN(C)CC1CCCCC1`, the activation is -0.153% (inactive). Still for that read-out and setting: with `C[C@H]1CN([C@@H](C)CO)C(=O)c2cc(NC(=O)Nc3ccc(F)cc3)ccc2O[C@H]1CN(C)S(C)(=O)=O` the figure was 4.69% (inactive); with `C[C@H]1CN([C@@H](C)CO)C(=O)c2cccc(NC(=O)Nc3ccc(F)cc3)c2O[C@H]1CN(C)CC1CCCCC1`, -0.099% (inactive); with `C[C@@H]1CN([C@H](C)CO)C(=O)c2cc(NS(C)(=O)=O)ccc2O[C@@H]1CN(C)Cc1ccc(C(F)(F)F)cc1`, -0.068% (inactive).

With `C[C@@H]1CN([C@@H](C)CO)C(=O)c2cc(C3=CCCCC3)cnc2O[C@H]1CN(C)C(=O)NC1CCCC1`, the activation was -0.267% (inactive). Take `COC(=O)c1cc(S(=O)(=O)NCC2CCN(CCc3cccs3)CC2)c[nH]1`: the activation is 0.021% (inactive). As for `Cc1cc(C)nc(NC(N)=NC(C)c2ccccc2)n1` (stereo not given), the activation was -0.07% (inactive). Same read-out and setting: with `CC(=O)Nc1ccc(NC(=O)COc2ccc(Cl)cc2Cl)cc1` the figure was -0.194% (inactive); with `COc1ccc(S(=O)(=O)N(C)C[C@H]2Oc3ccc(NC(=O)CCCN(C)C)cc3C(=O)N([C@@H](C)CO)C[C@@H]2C)cc1`, -0.152% (inactive); with `COc1cccc(CNC(=O)CN2C(=O)COc3ccc(S(=O)(=O)N4CCCCCC4)cc32)c1`, -0.081% (inactive). The same measure, in the same setting: for `C[C@@H]1CN([C@H](C)CO)C(=O)c2cc(NS(C)(=O)=O)ccc2O[C@H]1CN(C)C(=O)Nc1ccccc1` the value was -0.057% (inactive); for `C[C@H](CO)N1C[C@H](C)[C@H](CN(C)C(=O)NC2CCCCC2)Oc2ccc(NS(=O)(=O)c3ccccc3)cc2C1=O`, -0.156% (inactive).

As to `C[C@H]1CN([C@@H](C)CO)C(=O)Cc2cc(NC(=O)c3ccncc3)ccc2O[C@H]1CN(C)C(=O)Nc1ccc(C(F)(F)F)cc1`, the activation was 0.212% (inactive). On the same count and under the same terms, with `Cc1ccc(C(=O)Nc2cc(C)nn2CCC#N)cc1` the figure was 0.178% (inactive).

Still in this assay, the particulars now being: HUVEC E-selectin immunostaining, at 21 µM (top of the series), percent of TNF-alpha response over vehicle.
In the case of `C[C@H]1CN([C@@H](C)CO)C(=O)c2cccc(NC(=O)c3ccc(-c4nccs4)cc3)c2O[C@H]1CN(C)Cc1ccc(Oc2ccccc2)cc1`, the activation was 0.436% (inactive). In the case of `COc1ccc(S(=O)(=O)Nc2cccc3c2O[C@H](CN(C)C(=O)Nc2c(C)noc2C)[C@@H](C)CN([C@H](C)CO)C3=O)cc1`, the activation was -0.117% (inactive). Same read-out and setting: for `CC(C)NC(=O)N(C)C[C@H]1Oc2ccc(NC(=O)CCN3CCOCC3)cc2C(=O)N([C@H](C)CO)C[C@@H]1C` the value was 0.008% (inactive); for `C[C@H]1CN([C@@H](C)CO)C(=O)c2cc(NC(=O)Nc3ccc(F)cc3)ccc2O[C@H]1CN(C)S(=O)(=O)c1cccs1`, 2.05% (inactive); for `C[C@@H]1CN([C@H](C)CO)C(=O)Cc2cc(NC(=O)Nc3ccc(F)cc3)ccc2O[C@@H]1CN(C)S(=O)(=O)c1ccc(Cl)cc1`, 0.732% (inactive).

Regarding `C[C@H]1CN([C@@H](C)CO)C(=O)Cc2cc(NC(=O)Nc3ccc(C(F)(F)F)cc3)ccc2O[C@H]1CN(C)C(=O)Nc1cccc2ccccc12`, the activation is 0.822% (inactive).

Consider `C[C@@H]1CN([C@H](C)CO)C(=O)c2cccc(NS(=O)(=O)c3cn(C)cn3)c2O[C@H]1CN(C)C(=O)Nc1ccc(F)cc1`, for which the activation is 6% (inactive). As to `CNC[C@@H]1Oc2c(NC(=O)Nc3ccc(F)cc3)cccc2C(=O)N([C@H](C)CO)C[C@H]1C`, the activation is -0.191% (inactive).
